# “Also recorded” adds a separate entry of the source. Read-outs that look alike come from different tables or passages of the source.
# Columns and labels:
# Galectin-3 [1] = biological target: T1, Galectin-3 (Homo sapiens, UniProt P17931); conditions: HSC-2 cells, 2 μM 33DFTG for 2 days; control treatment 1247
# Procedure: (§1) After the incubation, cells were stained with Alexa Fluor 488-conjugated human recombinant Galectin-1, and Alexa Fluor 488-conjugated human recombinant Galectin-3 (both from Abcam, Cambridge, United Kingdom; and both at 10 μg/ml) for 45 minutes at +4° C. Cells were washed and stored on ice in the dark until analysed by FACSAriaII flow cytometer.
# (§2) In parallel, untreated cells were cultured in normal cell culture medium. For flow cytometry analysis, cells were detached with trypsin, washed, and stained with AlexaFluor488-conjugated Galectin-1 and Galectin-3 proteins as above. FACS was performed as above.
# [2] = test system: NCI-N87 cancer cell line tumors; assay: in vivo trial, cancer cell xenografts on chicken egg chorioallantoic membrane (CAM): tumor weight; conditions: for Mean tumor size: five doses E10-E17, 1.5 mg/kg pembrolizumab, 1.8 mg/kg 33DFTG, weighed E18, PBS control 30.6
# Procedure: (§3) The study was performed by Inovotion SAS (La Tronche, France). Fertilized chicken eggs were incubated at 37.5° C. with 50% relative humidity for 9 days (E9), when the chorioallantoic membrane (CAM) was dropped down by drilling a small hole through the eggshell into the air sac, and a 1 cm^2 window was cut in the eggshell above the CAM. The NCI-N87 cell line was cultivated in RPMI-1640 medium supplemented with 10% FBS and 1% penicillin/streptomycin. On day E9, cells were detached by trypsin, washed with complete medium and suspended in graft medium. An inoculum of 2 million cells was added onto the CAM of each egg. […] Living grafted eggs were randomized into groups and were then treated on day E10, E11.5, E13, E14.5 and E17 (five doses) by dropping 100 μl of vehicle (PBS) and compounds (alone or in combination) onto the tumor. On day 18 (E18) the upper portion of the CAM was removed, washed in PBS and then directly transferred in PFA (fixation for 48 h). The tumors were then carefully cut away from normal CAM tissue and weighed. Eggs were checked at each treatment time, or at least every two days, for viability during the study. At the end of the study, the number of dead embryos was counted and combined with the observation of eventual visible macroscopic abnormalities (observation done during the sample collection) to evaluate the toxicity.
# Galectin-1 [3] = biological target: T2, Galectin-1 (Homo sapiens, UniProt P09382); assay: Alexa Fluor 488-Galectin-1 binding to HSC-2 cells by FACS; type: cell-based
# T2 construct: purchased Abcam, Cambridge, United Kingdom
# Procedure: as §1, §2
# Galectin-3 [4] = biological target: T1, Galectin-3; conditions: SKOV-3 cells, 2 μM 33DFTG for 3 days; Galectin-3 10 μg/ml; control treatment 1940
# Procedure: as §1
# egg embryos = assay: in vivo CAM trial: embryo viability (toxicity)
# Procedure: as §3
# Galectin-1 [5] = biological target: T2, Galectin-1; assay: Alexa Fluor 488-Galectin-1 binding to SKOV-3 cells by FACS; type: cell-based
# Procedure: as §1
# T2 sequence (P09382 whole entry): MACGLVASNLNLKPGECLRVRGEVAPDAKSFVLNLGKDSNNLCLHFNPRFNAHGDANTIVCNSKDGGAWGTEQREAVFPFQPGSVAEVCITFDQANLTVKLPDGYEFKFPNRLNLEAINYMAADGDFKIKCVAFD
# T1 sequence (P17931 whole entry): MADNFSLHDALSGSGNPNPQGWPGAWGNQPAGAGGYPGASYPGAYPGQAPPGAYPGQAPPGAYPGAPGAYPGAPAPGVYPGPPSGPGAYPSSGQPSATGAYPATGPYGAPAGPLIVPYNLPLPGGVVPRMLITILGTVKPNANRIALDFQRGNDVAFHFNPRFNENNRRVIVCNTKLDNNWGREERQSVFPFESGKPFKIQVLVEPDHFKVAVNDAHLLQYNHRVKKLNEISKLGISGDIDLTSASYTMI
Compound,"Mean fluorescence intensity, Galectin-3 (Galectin-3 [1])",Mean tumor size [2],binding of Galectin-1 to the cells (in words) (Galectin-1 [3]; 2 μM 33DFTG),"Mean fluorescence intensity, Galectin-1 (Galectin-1 [3]; 2 μM 33DFTG for 2 days, control treatment 521)","Mean fluorescence intensity, Galectin-3 (Galectin-3 [4])","% alive (egg embryos; chicken, in vivo, 8 days)",binding of Galectin-1 to the cells (in words) (Galectin-1 [5]; 2 μM 33DFTG),"Mean fluorescence intensity, Galectin-1 (Galectin-1 [5]; 2 μM 33DFTG for 3 days, Galectin-1 10 μg/ml, control treatment 439)",tumor size / therapeutic efficacy compared to control group (in words) ([2]; repeated dose),"% alive (egg embryos; egg embryos at end of study, PBS control 81)"
"OC[C@H]1O[C@@H](S[C@@H]2O[C@H](CO)[C@H](O)[C@H](n3cc(-c4cccc(F)c4)nn3)[C@H]2O)[C@H](O)[C@@H](n2cc(-c3cccc(F)c3)nn2)[C@H]1O [33DFTG, 3,3′-dideoxy-3,3′-bis-[4-(3-fluorophenyl)-1H-1,2,3-triazol-1-yl]-1,1′-sulfanediyl-di-β-D-galactopyranoside]",129,35.8 mg,effective inhibition; also recorded: clearly decreased,226,165,64%,effective inhibition; also recorded: clearly decreased,186,,
"Pembrolizumab: pembrolizumab (Keytruda, Merck)",,33.5 mg,,,,,,,neither pembrolizumab alone or 33DFTG alone showed significant difference,73%
